From US20090176817A1, “Method of Treatment of Diarrhea-Predominant Irritable Bowel Syndrome in a Subject” (priority 2005, published 2009)

Assays:
[1] = test system: healthy, elderly subjects; test: Study K.241.5013: colonic transit time, elderly, 4 mg TID; format: in vivo, human; settings: 4 mg TID oral 14 days, mean (SD)
Source text: The effect of cilansetron on gastric emptying time and colonic transit time has been studied in 1 clinical study in healthy young subjects and 2 studies in elderly subjects. For measurement of gastric emptying time, breath samples for the determination of the ^12C/^13C ratio were taken on the last day of each treatment period immediately after ingestion of a ^13C labeled meal. The patients' breath was collected in separate 15-minute intervals, for four hours in total. ^13CO2 measurements were performed with an isotope ratio mass spectrometer. The half-life (TK) and lag-time (Tlag), which describe the duration of gastric emptying, were used as the primary parameters to evaluate gastric emptying time. In all 3 studies, colonic transit time was measured by administration of radio-opaque markers for the last six days of each treatment period, followed by a single abdominal X-ray image at 24 hours after ingestion of the last set of markers. The numbers of markers within the colon were used to calculate segmental (right colon, left colon, and rectosigmoid) and total colonic transit time.
Studies K.241.5013 and K.241.5014 were randomized, double-blind, placebo-controlled, 2-way crossover studies in 8 healthy male and female elderly subjects, each (ITT population, aged 64-83 years in K.241.5013 and 66-84 years in K.241.5014). Elderly subjects were selected for these studies because they commonly suffer from constipation and it was of interest whether cilansetron would prolong gastrointestinal transit times in this population. Subjects received cilansetron 4 mg or placebo in Study K.241.5013 and cilansetron 8 mg or placebo in Study K.241.5014. Treatments were administered orally TID for 14 days during each period, with a 14-day washout between periods. The primary efficacy parameter was the total mean colonic transit time during each treatment and the secondary parameters were the segmental colonic transit times and the gastric emptying measurements. One-sided t-tests were used to compare efficacy parameters between the cilansetron and placebo treatments.

serum proteins = test: in vitro; settings: both, human, plasma, Plasma protein bound
Method: The ex vivo protein binding of cilansetron and its 4-hydroxy metabolites has been measured in serum samples collected in a multiple-dose study in healthy and renally impaired male and female subjects, aged 33-74 years. […] Healthy subjects were matched to renally-impaired subjects with respect to age, weight, gender, and smoking status. All subjects received oral cilansetron 2 mg TID on Days 1 to 5, and a single dose on the morning of Day 6.

clinical [2] = settings: human, in vivo; for AUC: AUC (0-τ)
Method: Subjects were treated with a single oral dose of cilansetron 8 mg (tablet) on Day 1, followed by 8 mg TID for 5 days (Days 2-6) and a single 8 mg dose on the morning of Day 7. Young subjects ranged in age from 19-45 years, and elderly from 66-79 years. Serial blood samples were collected up to 24 hours postdose on Days 1 and 7, and cilansetron pharmacokinetic parameters were calculated. Doses on pharmacokinetic sampling days were administered under fasted conditions.
Young subjects ranged in age from 19-45 years, and elderly from 66-79 years. Serial blood samples were collected up to 24 hours postdose on Days 1 and 7, and cilansetron pharmacokinetic parameters were evaluated. Doses on pharmacokinetic sampling days were administered under fasted conditions.

[3] = both, human, in vivo, 32 mg
Method: Two randomized, double-blind, placebo controlled, balanced incomplete block design, crossover studies evaluated the single- and multiple-dose pharmacokinetics of oral cilansetron over a 8 mg to 32 mg dose range. In both studies, subjects were randomized to receive two of three treatments during 2 treatment periods. In one study (12 male and 13 female subjects, aged 23 to 36 years), subjects received 8 mg cilansetron, 16 mg cilansetron, or placebo, while in another study (12 males and 13 females, aged 23 to 41 years), subjects received 16 mg cilansetron, 32 mg cilansetron, or placebo. During each treatment period, subjects received a single dose of their assigned treatment on the first day, followed by a 3-day washout, after which they received the same treatment TID for 5 days.
There was a 5-6 day washout period between treatment periods. Doses on the mornings of pharmacokinetic days were administered under fasted conditions. Serial blood sampling and urine collection was performed up to 12 hours following morning dosing on the first day (single dose) and on the last multiple dosing day of each treatment period, and cilansetron pharmacokinetic parameters were evaluated.
In two randomized, double-blind, placebo controlled, balanced incomplete block design, crossover studies evaluating the single- and multiple-dose pharmacokinetics of oral cilansetron over a 8 mg to 32 mg dose range, subjects were randomized to receive two of three treatments during 2 treatment periods. In Study S.241.1.101; (12 male and 13 female subjects, aged 23 to 36 years), subjects received 8 mg cilansetron, 16 mg cilansetron, or placebo, while in Study S.24 1.1.102; (12 males and 13 females, aged 23 to 41 years), subjects received 16 mg cilansetron, 32 mg cilansetron, or placebo. During each treatment period, subjects received a single dose of their assigned treatment on the first day, followed by a 3-day washout, after which they received the same treatment TID for 5 days. There was a 5-6 day washout period between treatment periods. Doses on the mornings of pharmacokinetic days were administered under fasted conditions. Serial blood sampling and urine collection was performed up to 12 hours following morning dosing on the first day (single dose) and on the last multiple dosing day of each treatment period, and cilansetron pharmacokinetic parameters were evaluated.

CYP2C19 = settings: hepatocytes
[4] = test system: diarrhea-predominant IBS subjects; test: Study S241.3.009: IBS-QOL; format: in vivo, human; set-up: IBS-QOL interference with activity, treatment difference / IBS-QOL food avoidance, treatment difference / IBS-QOL dysphoria, treatment difference / IBS-QOL body image, treatment difference / IBS-QOL health worry, treatment difference / IBS-QOL social reaction, treatment difference / IBS-QOL sexual, treatment difference / IBS-QOL relationships, treatment difference: scale not given here; settings: for Percentage of Subjects Who Worsened from Baseline: IBS-QOL Overall Score: S241.3.009, 2 mg TID, observed value
Source text: Studies S24 1.3.OO6, S24 1.3.0 1 1, and S24 1.3.009 used the following efficacy measurements: • The subjects answered the following three questions with “yes” or “no” using a phone diary at the end of each week: • a) During the last week, did you experience adequate relief of your IBS symptoms, such as abdominal pain, abdominal discomfort, abnormal bowel habits? • b) During the last week, did you experience adequate relief of your abdominal pain and/or discomfort? • c) During the last week, did you experience adequate relief of your abnormal bowel habits? • The subjects rated the following symptoms using the phone diary at the end of each day: • abdominal pain/discomfort (five-point scale); • stool consistency (seven-point Bristol Stool Scale); • stool frequency (number of bowel movements each day); • urgency (five-point scale); • straining (yes or no); • feeling of incomplete defecation (yes or no); • bloating or feeling of abdominal distension (five-point scale). • In Studies S241 A006 and S241.3.009, subjects completed the IBS-QOL Survey at Baseline (Day 1) and at the end of treatment. In Study S24 1.3.0 1 1, subjects completed the IBS-QOL Survey at Baseline (Day 1), at the end of the three-month treatment period, and at the end of rerandomized treatment.
Other secondary efficacy parameters for all three studies included: • Responder rate for the weekly diary questions on adequate relief at each month, where a responder for a month (monthly responder) was defined as a subject who answered the weekly question with “yes” at least twice for that month. The responder rate was the percentage of responders within a treatment group. The all-month responder rate for the weekly diary questions on adequate relief was also evaluated, where an all-month responder was defined as a subject who answered the weekly question with “yes” at least twice for each month. The all-month responder rate was the percentage of all-month responders within a treatment group; • Adequate relief rate for the weekly diary questions was calculated for each subject as the number of weekly assessments with adequate relief (“yes”) divided by the total number of weekly assessments; • Percentage of subjects with adequate relief for the weekly diary questions at each week; • Daily diary questions regarding abdominal pain/discomfort (five-point scale), stool consistency (seven-point scale), stool frequency (number of bowel movements each day), straining (yes or no), urgency (five-point scale), feeling of incomplete evacuation (yes or no), and bloating or feeling of abdominal distention (five-point scale); • QOL data assessed by the IBS-QOL questionnaire; and • Question to determine the interruption of activities.
The IBS-QOL is presented for the ITT population in FIG. 84 (change from Baseline). The IBS-QOL questionnaire was completed only in countries for which there was a validated translation available.

clinical [5] = settings: both, human, in vivo, po, 16 mg
Method: In a randomized, double-blind, placebo-controlled, 2-way crossover study in 9 male and 9 female healthy subjects (ITT population, aged 21-39 years), subjects were randomized to receive 2 treatments (cilansetron 16 mg tablet and placebo) during the 2 treatment periods. During each treatment period, subjects received a single dose of their assigned treatment on the first day (Day 1), after which they received the same treatment TID for 4 days (Days 2-5). There was a 10-day washout period between treatment periods. Subjects were fasted for at least 2 hours before and following each dose, and heavy physical activity was restricted. Serial 12-lead ECGs was recorded up to 24 hours following dosing on Day 1 (single dose) and on the last day (Day 5) of each treatment period. Heart rate and ECG intervals (RR, PR, QRS, and QT) were measured electronically, but were manually verified and corrected if needed by the investigator. QT intervals were corrected (QTc) electronically for heart rate using the Bazett's correction. Mean and maximum QTc intervals were calculated over different time intervals postdose and were compared between treatments using an ANOVA accounting for sequence, gender, subject within sequence and gender, period, and treatment effects.

Cc1nccn1C[C@H]1CCc2c(c3cccc4c3n2CCC4)C1=O [Cilansetron, (R)-(−)-4,5,6,8,9,10-hexahydro-10-[(2-methyl-1H-imidazol-1-yl)methyl]-11H-pyrido-[3,2,1-jk]-carbazol-11-one]
Transit Times, Colon Total [1]: 55.5 (41.3) hours
Transit Times, Colonic Segments Left [1]: 21.9 (16.0) hours
Transit Times, Colonic Segments Rectosigmoid [1]: 6.3 (8.3) hours
Transit Times, Colonic Segments Right [1]: 27.3 (29.2) hours
fraction unbound (serum proteins): ~0.04
AUC(0-inf) (clinical [2]; female, 8 mg): 289 ng·h/mL
AUC (clinical [2]; female, 8 mg): 247 ng·h/mL
AUC(0-inf) (clinical [2]; female): 178 ng·h/mL
AUC (clinical [2]; female): 263 ng·h/mL
Cmax (clinical [2]; female): 95.1 ng/mL
Tmax (clinical [2]; female): 0.88 h
AUC(0-inf) (clinical [2]; male): 228 ng·h/mL
AUC (clinical [2]; male): 196 ng·h/mL
Cmax (clinical [2]; male): 58.8 ng/mL
Tmax (clinical [2]; male): 1.31 h
Vd/F (clinical [2]; male, Vz/F): 243 L
DN-AUC [3]: 14.1 (61) ng · h/mL
Increase of CYP2C19 (CYP2C19): about half of that caused by phenobarbital
Subjects worsened from Baseline, IBS-QOL Overall Score ([4]; Month 6): 5%
Percentage of Subjects Who Worsened from Baseline: IBS-QOL Overall Score ([4]; Endpoint (last post-Baseline overall score)): 5%
Percentage of Subjects Who Worsened from Baseline: IBS-QOL Overall Score ([4]; Month 6): 5%
IBS-QOL body image, treatment difference ([4]; vs placebo): 5.04
IBS-QOL dysphoria, treatment difference ([4]; vs placebo): 8.78
IBS-QOL food avoidance, treatment difference ([4]; vs placebo): 10.09
IBS-QOL health worry, treatment difference ([4]; vs placebo): 5.41
IBS-QOL interference with activity, treatment difference ([4]; vs placebo): 10.85
IBS-QOL overall score, treatment difference in mean change from Baseline at Endpoint ([4]; vs placebo): 7.90
IBS-QOL relationships, treatment difference ([4]; vs placebo): 5.66
IBS-QOL sexual, treatment difference ([4]; vs placebo): 2.93
IBS-QOL social reaction, treatment difference ([4]; vs placebo): 8.70
Tmax (clinical [5]): 3 h
